Source: ChEMBL document CHEMBL1201861, “Genomics of Drug Sensitity in Cancer screening data, Wellcome Trust Sanger Institute”

Columns and labels:
Assay in all cases: cells
HT = assay type: functional, cell-based, Homo sapiens; conditions: Homo sapiens, HT
Description: SANGER: Inhibition of human HT cell growth in a cell viability assay.

NCI-H720 = assay type: functional, cell-based, Homo sapiens; conditions: Homo sapiens, NCI-H720;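 also: growth inhibition of human NCI-H720 cells determined by a cell viability assay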
Description: SANGER: Inhibition of human NCI-H720 cell growth in a cell viability assay.

QIMR-WIL = assay type: functional, cell-based, Homo sapiens; conditions: Homo sapiens, QIMR-WIL;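 also: growth inhibition of QIMR-WIL cells, read out with a cell viability assay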
Description: SANGER: Inhibition of human QIMR-WIL cell growth in a cell viability assay.

MV4-11 = assay type: functional, cell-based, Homo sapiens, MV-4-11; conditions: Homo sapiens, MV4-11;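 also: cell viability readout measuring growth inhibition of human MV-4-11 cells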
Description: SANGER: Inhibition of human MV-4-11 cell growth in a cell viability assay.

NCI-H1838 = assay type: functional, cell-based, Homo sapiens; conditions: Homo sapiens, NCI-H1838;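 also: growth inhibition of NCI-H1838 cells, determined with a cell viability readout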
Description: SANGER: Inhibition of human NCI-H1838 cell growth in a cell viability assay.

DMS-114 = assay type: functional, cell-based, Homo sapiens; conditions: Homo sapiens, DMS-114
RXF 393 = assay type: functional, cell-based, Homo sapiens; conditions: Homo sapiens, RXF 393;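 also: growth inhibition of human RXF 393 cells, read out with a cell viability assay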
Description: SANGER: Inhibition of human RXF393 cell growth in a cell viability assay.

IST-SL1 = assay type: functional, cell-based, Homo sapiens; conditions: Homo sapiens, IST-SL1;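 also: growth inhibition of human IST-SL1 cells, read out with a cell viability assay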
Description: SANGER: Inhibition of human IST-SL1 cell growth in a cell viability assay.

OVCAR-4 = assay type: functional, cell-based, Homo sapiens; conditions: Homo sapiens, OVCAR-4;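 also: growth inhibition of human OVCAR-4 cells, measured with a cell viability assay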
Description: SANGER: Inhibition of human OVCAR-4 cell growth in a cell viability assay.

UACC-257 = assay type: functional, cell-based, Homo sapiens; conditions: Homo sapiens, UACC-257
Description: SANGER: Inhibition of human UACC-257 cell growth in a cell viability assay.

SK-LMS-1 = assay type: functional, cell-based, Homo sapiens; conditions: Homo sapiens, SK-LMS-1;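 also: growth inhibition of human SK-LMS-1 cells, read out with a cell viability assay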
Description: SANGER: Inhibition of human SK-LMS-1 cell growth in a cell viability assay.

KG-1 = assay type: functional, cell-based, Homo sapiens; conditions: Homo sapiens, KG-1;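 also: growth inhibition of KG-1 cells, read out by a cell viability assay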
Description: SANGER: Inhibition of human KG-1 cell growth in a cell viability assay.

KM12 = assay type: functional, cell-based, Homo sapiens; conditions: Homo sapiens, KM12;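 also: KM12 cell growth inhibition, read out with a cell viability assay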
Description: SANGER: Inhibition of human KM12 cell growth in a cell viability assay.

K5 = assay type: functional, cell-based, Homo sapiens; conditions: Homo sapiens, K5
Description: SANGER: Inhibition of human K5 cell growth in a cell viability assay.

DB = assay type: functional, cell-based, Homo sapiens; conditions: Homo sapiens, DB
Description: SANGER: Inhibition of human DB cell growth in a cell viability assay.

SNB-75 = assay type: functional, cell-based, Homo sapiens; conditions: Homo sapiens, SNB-75;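 also: cell viability assay measuring growth inhibition of human SNB-75 cells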
Description: SANGER: Inhibition of human SNB75 cell growth in a cell viability assay.

MC116 = assay type: functional, cell-based, Homo sapiens; conditions: Homo sapiens, MC116;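 also: growth inhibition of MC116 cells, read out with a cell viability assay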
Description: SANGER: Inhibition of human MC116 cell growth in a cell viability assay.

LB771-HNC = assay type: functional, cell-based, Homo sapiens; conditions: Homo sapiens, LB771-HNC;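 also: growth inhibition of LB771-HNC human cells, read out with a cell viability assay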
Description: SANGER: Inhibition of human LB771-HNC cell growth in a cell viability assay.

ES4 = assay type: functional, cell-based, Homo sapiens; conditions: Homo sapiens, ES4;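 also: growth inhibition of human ES4 cells, read out by a cell viability assay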
Description: SANGER: Inhibition of human ES4 cell growth in a cell viability assay.

CAS-1 = assay type: functional, cell-based, Homo sapiens; conditions: Homo sapiens, CAS-1;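 also: growth inhibition of CAS-1 cells, measured with a cell viability assay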
Description: SANGER: Inhibition of human CAS-1 cell growth in a cell viability assay.

Calu-6 = assay type: functional, cell-based, Homo sapiens; conditions: Homo sapiens, Calu-6;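 also: growth of human Calu-6 cells, read out by a cell viability assay, IC50 marking inhibition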
Description: SANGER: Inhibition of human Calu-6 cell growth in a cell viability assay.

AM-38 = assay type: functional, cell-based, Homo sapiens; conditions: Homo sapiens, AM-38;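 also: growth inhibition of AM-38 cells of human origin, read out by a cell viability assay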
Description: SANGER: Inhibition of human AM-38 cell growth in a cell viability assay.

LU-134-A = assay type: functional, cell-based, Homo sapiens; conditions: Homo sapiens, LU-134-A
Description: SANGER: Inhibition of human LU-134-A cell growth in a cell viability assay.

TGBC24TKB = assay type: functional, cell-based, Homo sapiens; conditions: Homo sapiens, TGBC24TKB;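 also: growth inhibition of human TGBC24TKB cells, read out with a cell viability assay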
Description: SANGER: Inhibition of human TGBC24TKB cell growth in a cell viability assay.

TE-9 = assay type: functional, cell-based, Homo sapiens; conditions: Homo sapiens, TE-9;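 also: cell growth inhibition, measured with a cell viability readout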
Description: SANGER: Inhibition of human TE-9 cell growth in a cell viability assay.

NOMO-1 = assay type: functional, cell-based, Homo sapiens; conditions: Homo sapiens, NOMO-1;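 also: growth inhibition of human NOMO-1 cells measured by a cell viability assay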
Description: SANGER: Inhibition of human NOMO-1 cell growth in a cell viability assay.

TGBC1TKB = assay type: functional, cell-based, Homo sapiens; conditions: Homo sapiens, TGBC1TKB;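 also: growth inhibition of TGBC1TKB cells, read out by a cell viability assay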
Description: SANGER: Inhibition of human TGBC1TKB cell growth in a cell viability assay.

NCI-H446 = assay type: functional, cell-based, Homo sapiens; conditions: Homo sapiens, NCI-H446;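 also: growth inhibition of NCI-H446 cells determined by a cell viability assay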
Description: SANGER: Inhibition of human NCI-H446 cell growth in a cell viability assay.

ES3 = assay type: functional, cell-based, Homo sapiens; conditions: Homo sapiens, ES3;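 also: growth inhibition of ES3 cells, read out with a cell viability assay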
Description: SANGER: Inhibition of human ES3 cell growth in a cell viability assay.

DSH1 = assay type: functional, cell-based, Homo sapiens; conditions: Homo sapiens, DSH1;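 also: growth inhibition of human DSH1 cells, measured with a cell viability readout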
Description: SANGER: Inhibition of human DSH1 cell growth in a cell viability assay.

HCC2157 = assay type: functional, cell-based, Homo sapiens; conditions: Homo sapiens, HCC2157;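 also: growth inhibition of the cancer cell line, read out as cell viability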
Description: SANGER: Inhibition of human HCC2157 cell growth in a cell viability assay.

SNU1 = assay type: functional, cell-based, Homo sapiens; conditions: Homo sapiens, SNU1;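 also: growth inhibition of human NCI-SNU-1 cells, measured with a cell viability assay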
Description: SANGER: Inhibition of human NCI-SNU-1 cell growth in a cell viability assay.

C2BBe1 = assay type: functional, cell-based, Homo sapiens; conditions: Homo sapiens, C2BBe1;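 also: growth inhibition of C2BBe1 cells, read out through a viability assay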
Description: SANGER: Inhibition of human C2BBe1 cell growth in a cell viability assay.

EW-24 = assay type: functional, cell-based, Homo sapiens; conditions: Homo sapiens, EW-24;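 also: human EW-24 cancer cell line, growth inhibition read out via a cell viability assay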
Description: SANGER: Inhibition of human EW-24 cell growth in a cell viability assay.

SW 962 = assay type: functional, cell-based, Homo sapiens; conditions: Homo sapiens, SW 962;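 also: growth inhibition of human SW962 cells, read out by a cell viability assay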
Description: SANGER: Inhibition of human SW962 cell growth in a cell viability assay.

HH = assay type: functional, cell-based, Homo sapiens; conditions: Homo sapiens, HH
Description: SANGER: Inhibition of human HH cell growth in a cell viability assay.

LOX IMVI = assay type: functional, cell-based, Homo sapiens; conditions: Homo sapiens, LOX IMVI
Description: SANGER: Inhibition of human LOXIMVI cell growth in a cell viability assay.

MS-1 = assay type: functional, cell-based, Homo sapiens; conditions: Homo sapiens, MS-1
Description: SANGER: Inhibition of human MS-1 cell growth in a cell viability assay.

CCRF-CEM = assay type: functional, cell-based, Homo sapiens; conditions: Homo sapiens, CCRF-CEM;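 also: inhibition of CCRF-CEM cell growth, measured by a cell viability assay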
Description: SANGER: Inhibition of human CCRF-CEM cell growth in a cell viability assay.

TE-10 = assay type: functional, cell-based, Homo sapiens; conditions: Homo sapiens, TE-10;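 also: growth inhibition of TE-10 cells, measured by a cell viability assay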
Description: SANGER: Inhibition of human TE-10 cell growth in a cell viability assay.

OMC-1 = assay type: functional, cell-based, Homo sapiens; conditions: Homo sapiens, OMC-1;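 also: growth inhibition of the OMC-1 cell line, measured by a cell viability assay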
Description: SANGER: Inhibition of human OMC-1 cell growth in a cell viability assay.

NCI-H1648 = assay type: functional, cell-based, Homo sapiens; conditions: Homo sapiens, NCI-H1648;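 also: cell viability assay measuring inhibition of NCI-H1648 cell growth, from the Sanger screening data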
Description: SANGER: Inhibition of human NCI-H1648 cell growth in a cell viability assay.

NCI-H1581 = assay type: functional, cell-based, Homo sapiens; conditions: Homo sapiens, NCI-H1581;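 also: cell growth inhibition read out by a viability assay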
Description: SANGER: Inhibition of human NCI-H1581 cell growth in a cell viability assay.

L-428 = assay type: functional, cell-based, Homo sapiens; conditions: Homo sapiens, L-428
Description: SANGER: Inhibition of human L-428 cell growth in a cell viability assay.

SW872 = assay type: functional, cell-based, Homo sapiens; conditions: Homo sapiens, SW872;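 also: growth inhibition of SW872 cells, read out by a viability assay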
Description: SANGER: Inhibition of human SW872 cell growth in a cell viability assay.

KU812 cell line = assay type: functional, cell-based, Homo sapiens; conditions: Homo sapiens, KU812;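 also: growth inhibition of KU812 cells, read out with a cell viability assay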
Description: SANGER: Inhibition of human KU812 cell growth in a cell viability assay.

EC-GI-10 = assay type: functional, cell-based, Homo sapiens; conditions: Homo sapiens, EC-GI-10
Description: SANGER: Inhibition of human EC-GI-10 cell growth in a cell viability assay.

ETK-1 = assay type: functional, cell-based, Homo sapiens; conditions: Homo sapiens, ETK-1;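 also: growth inhibition of human ETK-1 cells, read out with a cell viability assay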
Description: SANGER: Inhibition of human ETK-1 cell growth in a cell viability assay.

SF-539 = assay type: functional, cell-based, Homo sapiens; conditions: Homo sapiens, SF-539;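 also: Read-out is a cell viability assay, with IC50 reflecting inhibition of cell growth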
Description: SANGER: Inhibition of human SF539 cell growth in a cell viability assay.

Question: Which results are given for `COc1cc2ncn(-c3cc(OCc4ccccc4C(F)(F)F)c(C(N)=O)s3)c2cc1OC` [GW843682X]?
Answer: IC50 (HT): 128 nM; IC50 (NCI-H720): > 256 nM; IC50 (QIMR-WIL): 42.3 nM; IC50 (MV4-11): 25.9 nM; IC50 (NCI-H1838): > 256 nM; IC50 (DMS-114): 122 nM; IC50 (RXF 393): 105 nM; IC50 (IST-SL1): > 256 nM; IC50 (OVCAR-4): 71.5 nM; IC50 (UACC-257): 130 nM; IC50 (SK-LMS-1): 73.4 nM; IC50 (KG-1): > 256 nM; IC50 (KM12): 16.5 nM; IC50 (K5): 72.7 nM; IC50 (DB): > 256 nM; IC50 (SNB-75): 97.9 nM; IC50 (MC116): 36.4 nM; IC50 (LB771-HNC): 60 nM; IC50 (ES4): 18.4 nM; IC50 (CAS-1): > 256 nM; IC50 (Calu-6): 36.7 nM; IC50 (AM-38): > 256 nM; IC50 (LU-134-A): 119 nM; IC50 (TGBC24TKB): 45 nM; IC50 (TE-9): 21.3 nM; IC50 (NOMO-1): > 256 nM; IC50 (TGBC1TKB): 33.6 nM; IC50 (NCI-H446): 12 nM; IC50 (ES3): > 256 nM; IC50 (DSH1): > 256 nM; IC50 (HCC2157): > 256 nM; IC50 (SNU1): > 256 nM; IC50 (C2BBe1): > 256 nM; IC50 (EW-24): > 256 nM; IC50 (SW 962): 42.2 nM; IC50 (HH): 98.8 nM; IC50 (LOX IMVI): 125 nM; IC50 (MS-1): 16 nM; IC50 (CCRF-CEM): 14.8 nM; IC50 (TE-10): 12.6 nM; IC50 (OMC-1): > 256 nM; IC50 (NCI-H1648): 14.4 nM; IC50 (NCI-H1581): 30.5 nM; IC50 (L-428): 110 nM; IC50 (SW872): 27.7 nM; IC50 (KU812 cell line): 85.2 nM; IC50 (EC-GI-10): > 256 nM; IC50 (ETK-1): 17.3 nM; IC50 (SF-539): > 256 nM

Question: For `N[C@@H](CSC(c1ccccc1)(c1ccccc1)c1ccccc1)C(=O)O` [S-TRITYL-L-CYSTEINE], which IC50 (HT) is on record?
Answer: 2690 nM

Question: What about the IC50 (NCI-H720) of the same compound?
Answer: > 5120 nM

Question: What about the IC50 (QIMR-WIL) of the same compound?
Answer: > 5120 nM

Question: What about the IC50 (MV4-11) of the same compound?
Answer: 381 nM

Question: And the IC50 (NCI-H1838)?
Answer: > 5120 nM

Question: What about the IC50 (DMS-114) of the same compound?
Answer: 3260 nM

Question: What about the IC50 (RXF 393) of the same compound?
Answer: > 5120 nM

Question: What about the IC50 (IST-SL1) of the same compound?
Answer: 4340 nM

Question: What about the IC50 (OVCAR-4) of the same compound?
Answer: 3800 nM

Question: And the IC50 (UACC-257)?
Answer: > 5120 nM

Question: And the IC50 (SK-LMS-1)?
Answer: > 5120 nM

Question: What about the IC50 (KG-1) of the same compound?
Answer: > 5120 nM

Question: What about the IC50 (KM12) of the same compound?
Answer: 4670 nM

Question: And the IC50 (K5)?
Answer: 1040 nM

Question: What about the IC50 (DB) of the same compound?
Answer: > 5120 nM

Question: And the IC50 (SNB-75)?
Answer: 2770 nM

Question: And the IC50 (MC116)?
Answer: 709 nM

Question: What about the IC50 (LB771-HNC) of the same compound?
Answer: 1950 nM

Question: And the IC50 (ES4)?
Answer: > 5120 nM

Question: What about the IC50 (CAS-1) of the same compound?
Answer: > 5120 nM

Question: What about the IC50 (Calu-6) of the same compound?
Answer: 427 nM

Question: And the IC50 (AM-38)?
Answer: > 5120 nM

Question: And the IC50 (LU-134-A)?
Answer: 4340 nM

Question: And the IC50 (TGBC24TKB)?
Answer: 2220 nM

Question: What about the IC50 (TE-9) of the same compound?
Answer: 915 nM

Question: What about the IC50 (NOMO-1) of the same compound?
Answer: > 5120 nM

Question: And the IC50 (TGBC1TKB)?
Answer: 2420 nM

Question: And the IC50 (NCI-H446)?
Answer: 2590 nM

Question: What about the IC50 (ES3) of the same compound?
Answer: > 5120 nM

Question: What about the IC50 (DSH1) of the same compound?
Answer: > 5120 nM

Question: What about the IC50 (HCC2157) of the same compound?
Answer: > 5120 nM

Question: And the IC50 (SNU1)?
Answer: > 5120 nM

Question: And the IC50 (C2BBe1)?
Answer: > 5120 nM

Question: And the IC50 (EW-24)?
Answer: > 5120 nM

Question: What about the IC50 (SW 962) of the same compound?
Answer: 1140 nM

Question: What about the IC50 (HH) of the same compound?
Answer: 3510 nM

Question: What about the IC50 (LOX IMVI) of the same compound?
Answer: > 5120 nM

Question: And the IC50 (MS-1)?
Answer: 2470 nM

Question: What about the IC50 (CCRF-CEM) of the same compound?
Answer: 2110 nM

Question: What about the IC50 (TE-10) of the same compound?
Answer: 730 nM

Question: What about the IC50 (OMC-1) of the same compound?
Answer: > 5120 nM

Question: And the IC50 (NCI-H1648)?
Answer: 602 nM

Question: What about the IC50 (NCI-H1581) of the same compound?
Answer: 3600 nM

Question: And the IC50 (L-428)?
Answer: 3210 nM

Question: And the IC50 (SW872)?
Answer: 795 nM

Question: What about the IC50 (KU812 cell line) of the same compound?
Answer: > 5120 nM

Question: What about the IC50 (EC-GI-10) of the same compound?
Answer: > 5120 nM

Question: What about the IC50 (ETK-1) of the same compound?
Answer: 5040 nM

Question: And the IC50 (SF-539)?
Answer: 2060 nM
